Reference: patent US6916802B2, “Amino ceramide-like compounds and therapeutic methods of use” (Genzyme Corporation, priority 2002, dated 2005)
Marks after values point to notes of the source that are not given here.

Test system: GlcCer synthase of MDCK cell homogenates
Assay: Inhibition of ceramide glucosyltransferase (GlcCer synthase) of MDCK cell homogenates
Type: biochemical, canine
Conditions: for Inhibition at 5 μM: 5 μM inhibitor; for Inhibition at 5 μM / % Inhibition at 80 μM: triplicate ± SD, samples partly isomer mixtures; for % Inhibition at 80 μM: 80 μM inhibitor
Procedure: Assay of sphingolipid enzymes. The inhibitors were evaluated for their effectiveness against the GlcCer synthase of MDCK cell homogenates by incubation in a thermostatted ultrasonic bath (Radin N. S. et al., “Ultrasonic Baths as Substitutes for Shaking Incubator Baths,” Enzyme, 45:67-70 (1991)) with octanoyl sphingosine and uridinediphospho[^3H]glucose (Shukla, G. S. et al., “Glucosylceramide Synthase of Mouse Kidney: Further Characterization and Improved Assay Method,” Arch. Biochem. Biophys., 283:372-378 (1990)). The lipoidal substrate (85 μg) was added in liposomes made from 0.57 mg dioleoylphosphatidylcholine and 0.1 mg of Na sulfatide. Confluent cells were washed, then homogenized with a micro-tip sonicator at 0° C. for 3×30 sec; ˜0.2 mg of protein was used in each assay tube. In the case of the aromatic inhibitors, the test compound was simply evaporated to dryness from solution in the incubation tube. […] The aliphatic inhibitors, which appeared to be less soluble in water, were added as part of the substrate liposomes.

Row | Structure (SMILES) | % Inhibition at 80 μM | further results
1 | CCCCCCCCCCCCC/C=C/[C@@H](O)[C@@H](CN1CCOCC1)NC(=O)CCCCCCCCCCCCCCC [IV-206A] | – | Inhibition at 5 μM: 73 ± 1.5^g %
2 | CCCCCCCCCCCCCCCC(=O)NC(CN1CCN(C)CC1)C(O)c1ccccc1 (mixture of isomers) [BML-120] | 11 ± 3.0^c % | –
3 | CCCCCCCCCCCCCCCC(=O)NC(CN1CCCCCC1)C(O)c1ccccc1 (mixture of isomers) [BML-116] | 28 ± 3.2^a % | –
4 | CCCCCCCCCCCCCCCC(=O)NC(CN(CC)CC)C(O)c1ccccc1 (mixture of isomers) [BML-114] | 31 ± 2.9^a % | activity against GlcCer synthase, in words: little or no activity
5 | CCCCCCCCCCCCCCCC(=O)NC(CN)C(O)c1ccccc1 (mixture of isomers) [BML-124] | −2 ± 1.6^d % | activity against GlcCer synthase, in words: little or no activity
6 | CCCCCCCCCCCCC/C=C/[C@@H](O)[C@H](CO)NC(C)=O [N-acetylsphingosine, reference compound] | – | inhibition of GlcCer synthase by nonionic ceramide-like compounds (20 μM): did not inhibit
7 | CCCCCCCCCCCCCCCC(=O)NC(CN1CCCC(N(C)C)C1)C(O)c1ccccc1 (mixture of isomers) [BML-121] | 11 ± 0.4^c % | –
8 | CCCCCCCCCCCCCCCC(=O)NC(CN1CCOCC1)C(O)c1ccc(F)cc1 (mixture of isomers) [BML-113] | 60 ± 4.7^a % | –
9 | CCCCCCCCCCCCCCCC(=O)NC(CN1CCOCC1)C(O)c1ccc(OC)cc1 (mixture of isomers) [BML-125] | – | Inhibition at 5 μM: 9 ± 3.0^e %
